Source: patent publication US20260137745A1, “QUERCETAGETIN ENRICHED MARIGOLD EXTRACTS, COMPOSITIONS, METHODS OF PREPARATION AND USE THEREOF” (AVT NATURAL PRODUCTS LTD., priority 2022, published 2026)
Values after ≈ are worked out from the molar mass of the structure shown. Read-outs that look alike come from different tables or passages of the source.

Columns and labels:
[1] = tested on: Keratinocyte (HACAT) cells; experiment: Cellular ROS Assay; type: cell-based; conditions: Homo sapiens, DCF-DA probe, flow cytometry, read-out: ROS inhibition IC50
Method: The Cellular ROS Assay is a cell-based assay designed for measuring Reactive Oxygen Species activity within a cell using the cell-permeable fluorogenic probe 2′. 7′-Di chloro dihydro fluorescein diacetate (DCF-DA). […] ROS induces the modification of carboxy-H2DCFDA that fluoresces green as detected by flow cytometry. ROS inhibition was evaluated for the composition with QG40 extract; the composition with QG90 extract and composition with quercetin.

[2] = Oxygen Radical Absorbance Capacity (ORAC) assay; type: biochemical; conditions: higher is better
Method: The Oxygen Radical Absorbance Capacity (ORAC) assay is a method that measures the antioxidant capacity of a substance. The ORAC assay measures a fluorescent signal from a probe that is quenched in the presence of Reactive Oxygen Species (ROS). […] In accordance with this protocol, ORAC assay was evaluated (using known protocols) for the composition comprising QG40 extract; the composition comprising QG90 extract and compared the same with composition comprising quercetin. […] Higher the ORAC value, means better performance by the composition.

[3] = DPPH Antioxidant Assay; type: biochemical; conditions: lower is better
Method: DPPH assay is considered a valid accurate and easy method to evaluate radical scavenging activity of antioxidants. DPPH [1,1-diphenyl-2-picryl hydrazyl] is a stable free radical with purple color. Antioxidants reduce DPPH to 1,1-diphenyl-2-picryl hydrazine, a color less compound which is measured at an absorbance of […]. This is an accepted mechanism for screening the antioxidant activity of plant extracts in a concentration dependent manner. Accordingly, the DPPH Antioxidant Assay was conducted as per known protocols for the compositions comprising QG40, and compositions comprising QG90, and Quercetin.

[4] = tested on: Human Adult Epidermal Melanocytes (HAEM); experiment: Cellular melanin inhibition assay; type: cell-based; conditions: Melanocyte, read-out: melanin inhibition IC50
Method: Cellular melanin inhibition assay is a cell-based assay designed for measuring Melanin inhibition in Human Adult Epidermal Melanocytes (HAEM). Darkly pigmented melanocytes were treated with test samples and incubated for 72 hrs. Post incubation, melanin was extracted and measured at an absorbance of 490 nm to evaluate the non-cytotoxic concentration of test sample (i.e. composition with QG40 extract; the composition with QG90 extract and composition with quercetin) for melanin inhibition.

Structure (SMILES) | IC50 [1] [µg/mL] | ORAC value [2] [m1\4 TE/g] | DPPH Scavenging activity (IC50) [3] [µg/mL] | IC50 ([4]; 72 h) [µg/mL] | IC50 ([4]; darkly pigmented melanocytes, 72 hrs incubation) [µg/mL]
O.O.O=c1c(O)c(-c2ccc(O)c(O)c2)oc2cc(O)cc(O)c12 [Composition having Quercetin, Quercetin dihydrate] | 16.5 | 18.69 | 6.27 | 9.62 | –
O=c1cc(CO)occ1O [Kojic acid] | – | – | – | – | 25 (≈ 176 µM)
